Data reported in patent publication US11234960B2, “Compositions and methods for improving mitochondrial function and treating neurodegenerative diseases and cognitive disorders” (Amazentis SA, priority 2010, dated 2022).

What was measured:
Assay type in all cases: in vivo
[1] = system: maternally separated mice; experiment: Contextual fear conditioning in early-life stress mice; settings: early-life stressed mice
Method: At postnatal day 1, pups were culled to have 6 pups per mother. From postnatal day 1 to 14, unpredictable maternal separation (MS) of a period of 3 hours daily was carried out. Maternal separation was performed at random times (from 8 am to 2 pm) to avoid the habituation of the mother to the procedure. The protocol consisted of removing pups from their mother to another cage at room temperature for a 3 hour period, after which the pups were returned to their original nest. These groups are denoted as early-life stress in the figures. A control group of dam/pups was left undisturbed and is denoted in the figures as normal.
One week after maternal separation mice were separated into two groups. […]
Contextual fear conditioning was used to determine the effects of the ellagitannin punicalagin on the susceptibility of adult animals, subjected to early life stress, to anxiety. […] Animal behavior was monitored every 2 seconds throughout the duration of the experiment. The period that mice spent immobile in the chamber was considered as “freezing” and was scored throughout these periods. The time the mice spent immobile after the first shock was recorded for a 60 second period and expressed as a percentage. […]

normal mice = experiment: Rotarod assay in normal mice; settings: 90 mg/kg/day in diet for 3 months, four trials (FIG. 48)
Method: Beginning at 3 months of age, mice were fed either a standard control diet such as AIN-93G or a diet containing punicalagin to deliver a dose of 90 mg/kg/day for a period of 3 months.
To examine the effect of pomegranate derived compounds on muscle performance and motor skills, mice were tested on the rotarod behavioral assay. The rotarod apparatus consists of a rod with a diameter of 2 cm with 5 compartments, 5 cm wide. A mouse is placed on a rotating rod which is started at an initial speed of 5 rpm. The rod speed is gradually accelerated at a rate of 8 rpm/min. The latency to fall was measured with a cutoff time of 300 seconds. Mice were tested for four trials. The latency to fall is a measure of the muscle performance and motor skills of the mice, with a better performance reflected by a longer latency to fall. Both control untreated and punicalagin-treated mice were tested. […] Punicaligin-treated mice were able to remain on the rotarod for a longer time and at higher speeds compared to untreated mice during sequential trial periods (FIG. 48).

[2] = system: aged C. elegans (wild-type Bristol N2); experiment: Oxygen consumption (Seahorse XF24) in aged C. elegans; settings: 10-day-old worms, 30 μM urolithin A in 0.1% DMSO, 30 minute period (FIGS. 25A, 25B)
Method: C. elegans strains were cultured at 20° C. on nematode growth media (NGM) agar plates seeded with E. coli strain OP50. Strain used was wild-type Bristol N2 provided by the Caenorhabditis Genetics Center (University of Minnesota). Urolithin A was dissolved in DMSO. Animals were exposed to compounds from eggs on plates seeded with live OP50 bacteria. Control plates were prepared with the corresponding concentration of DMSO (0.1%).
Measurement of oxygen consumption is a direct indicator of mitochondrial activity. The effect of urolithin A on mitochondrial activity in aged C. elegans (10 days old) was assessed by treating C. elegans with urolithin A for 10 days of adulthood, at which time oxygen consumption was measured using the Seahorse XF24 equipment (Seahorse Bioscience Inc., North Billerica, Mass.). 250 ten-day-old C. elegans were used per condition. […] Worms were transferred into 24-well standard Seahorse plates (#100777-004) (50 worms per well) and oxygen consumption was measured. The basal oxygen consumption of the worms was first measured over 30 minutes at 5 minute intervals (0 min, 5 min, 15 min, 20 min, 25 min and 30 min) with 5 replicates per interval. Respiration rates were normalized to the exact number of worms per well determined after the completion of the experiment using a stereomicroscope. […]

| SMILES | freezing time after the first foot shock (anxiety level) ([1]; 90 mg/kg/day in food, 60 second period (FIG. 42)) | extinction of contextual recall (freezing as percent of day 1) ([1]; 90 mg/kg/day, 12 days, reduced freezing between days 8 and 12 (FIG. 43)) | muscle performance and motor skills, latency to fall from rotarod (normal mice) | uncoupled (FCCP) respiration, oxygen consumption AUC [2] |
| --- | --- | --- | --- | --- |
| O=C1O[C@H]2[C@@H]3OC(=O)c4cc(O)c(O)c(O)c4-c4c(O)c(O)c5oc(=O)c6c(c(O)c(O)c7oc(=O)c4c5c76)-c4c(cc(O)c(O)c4O)C(=O)OC[C@H]3OC(O)[C@@H]2OC(=O)c2cc(O)c(O)c(O)c2-c2c1cc(O)c(O)c2O (mixture of isomers) [punicalagin, 2,3 hexahydroxydiphenoyl-4,6-gallagylglucose] | decreased and normalized these elevated anxiety levels | faster extinction than untreated early-life stressed mice | significantly improve muscle performance and motor skills |  |
| O=c1oc2cc(O)ccc2c2ccc(O)cc12 [urolithin A, 3,8-Dihydroxydibenzo-α-pyrone] |  |  |  | significantly increased uncoupled respiration |
